Experimental data: US9382234B2, “Enhancer of Zeste Homolog 2 inhibitors” (GlaxoSmithKline LLC, priority 2012, dated 2016)

Molecular target: T1, EZH2 within the PRC2 complex (Homo sapiens, UniProt Q15910)
T1 construct: FLAG; made in house; host or cells: Sf9 cells
Test: EZH2 methyltransferase scintillation proximity assay (SPA) with PRC2 complex
Type: biochemical
Settings: 3H-SAM methyl transfer to Histone H3 of HeLa mononucleosomes; 30 min preincubation, 1 hour reaction

T1 sequence (Q15910 whole entry): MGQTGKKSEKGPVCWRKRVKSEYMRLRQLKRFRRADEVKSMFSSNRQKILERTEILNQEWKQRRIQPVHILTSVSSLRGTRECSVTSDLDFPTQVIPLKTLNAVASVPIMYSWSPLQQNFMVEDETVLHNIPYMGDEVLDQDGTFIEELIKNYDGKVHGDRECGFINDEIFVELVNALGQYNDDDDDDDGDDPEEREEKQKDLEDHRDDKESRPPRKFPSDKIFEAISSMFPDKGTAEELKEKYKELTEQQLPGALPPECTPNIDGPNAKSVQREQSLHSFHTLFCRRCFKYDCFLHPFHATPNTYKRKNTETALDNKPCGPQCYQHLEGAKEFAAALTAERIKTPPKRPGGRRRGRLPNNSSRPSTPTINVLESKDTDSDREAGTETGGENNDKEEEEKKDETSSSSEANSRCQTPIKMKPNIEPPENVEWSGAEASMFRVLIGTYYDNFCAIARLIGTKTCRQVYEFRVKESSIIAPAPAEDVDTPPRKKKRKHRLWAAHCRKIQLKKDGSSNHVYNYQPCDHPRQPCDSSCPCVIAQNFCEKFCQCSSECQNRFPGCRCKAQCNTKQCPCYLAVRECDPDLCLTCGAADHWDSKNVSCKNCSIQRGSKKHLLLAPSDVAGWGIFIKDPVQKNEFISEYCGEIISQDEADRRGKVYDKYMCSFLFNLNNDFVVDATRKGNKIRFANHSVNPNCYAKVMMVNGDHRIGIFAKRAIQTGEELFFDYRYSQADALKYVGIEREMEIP
T1 sequence (O75530 whole entry partner): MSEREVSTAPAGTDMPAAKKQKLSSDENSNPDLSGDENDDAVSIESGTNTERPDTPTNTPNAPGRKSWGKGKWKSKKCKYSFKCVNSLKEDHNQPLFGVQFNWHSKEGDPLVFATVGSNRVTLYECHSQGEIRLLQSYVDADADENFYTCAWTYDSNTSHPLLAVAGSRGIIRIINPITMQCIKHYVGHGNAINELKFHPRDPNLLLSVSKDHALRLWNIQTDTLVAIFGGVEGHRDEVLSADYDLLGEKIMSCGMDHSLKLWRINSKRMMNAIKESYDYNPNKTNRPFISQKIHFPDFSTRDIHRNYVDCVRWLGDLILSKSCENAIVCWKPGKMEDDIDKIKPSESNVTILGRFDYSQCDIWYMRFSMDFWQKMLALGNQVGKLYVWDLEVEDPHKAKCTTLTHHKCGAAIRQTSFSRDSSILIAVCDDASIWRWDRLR
T1 sequence (Q15022 whole entry partner): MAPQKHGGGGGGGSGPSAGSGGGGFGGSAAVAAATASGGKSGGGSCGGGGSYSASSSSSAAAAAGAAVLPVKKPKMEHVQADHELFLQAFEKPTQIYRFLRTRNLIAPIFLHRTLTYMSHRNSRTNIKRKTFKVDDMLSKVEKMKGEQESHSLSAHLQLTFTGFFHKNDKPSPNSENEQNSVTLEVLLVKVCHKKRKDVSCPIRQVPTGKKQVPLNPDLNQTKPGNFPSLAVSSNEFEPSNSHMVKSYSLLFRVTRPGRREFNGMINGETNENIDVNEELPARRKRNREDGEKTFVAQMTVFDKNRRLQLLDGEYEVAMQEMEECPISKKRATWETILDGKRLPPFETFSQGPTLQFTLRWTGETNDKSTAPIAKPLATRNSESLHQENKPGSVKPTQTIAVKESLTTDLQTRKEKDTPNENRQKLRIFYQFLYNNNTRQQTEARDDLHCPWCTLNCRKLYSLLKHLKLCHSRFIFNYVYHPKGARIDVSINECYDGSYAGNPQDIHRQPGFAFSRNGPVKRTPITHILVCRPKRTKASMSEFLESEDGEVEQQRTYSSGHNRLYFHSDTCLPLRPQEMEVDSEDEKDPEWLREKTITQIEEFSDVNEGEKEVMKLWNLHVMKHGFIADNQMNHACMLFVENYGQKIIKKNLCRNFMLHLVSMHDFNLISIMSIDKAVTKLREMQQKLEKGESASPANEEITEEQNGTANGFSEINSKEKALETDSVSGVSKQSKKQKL
T1 sequence (Q09028 whole entry partner): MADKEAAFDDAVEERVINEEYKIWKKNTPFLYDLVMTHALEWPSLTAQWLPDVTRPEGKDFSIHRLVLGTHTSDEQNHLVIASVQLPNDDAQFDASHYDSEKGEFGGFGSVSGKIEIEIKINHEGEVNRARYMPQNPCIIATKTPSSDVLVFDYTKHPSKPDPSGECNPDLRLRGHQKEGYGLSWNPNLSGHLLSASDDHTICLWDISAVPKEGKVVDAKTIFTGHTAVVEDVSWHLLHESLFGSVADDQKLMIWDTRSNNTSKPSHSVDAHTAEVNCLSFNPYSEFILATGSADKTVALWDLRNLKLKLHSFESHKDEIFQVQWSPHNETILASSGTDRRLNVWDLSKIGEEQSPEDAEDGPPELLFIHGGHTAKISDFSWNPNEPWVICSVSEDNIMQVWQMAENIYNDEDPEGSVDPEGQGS
T1 sequence (Q6ZN18 whole entry partner): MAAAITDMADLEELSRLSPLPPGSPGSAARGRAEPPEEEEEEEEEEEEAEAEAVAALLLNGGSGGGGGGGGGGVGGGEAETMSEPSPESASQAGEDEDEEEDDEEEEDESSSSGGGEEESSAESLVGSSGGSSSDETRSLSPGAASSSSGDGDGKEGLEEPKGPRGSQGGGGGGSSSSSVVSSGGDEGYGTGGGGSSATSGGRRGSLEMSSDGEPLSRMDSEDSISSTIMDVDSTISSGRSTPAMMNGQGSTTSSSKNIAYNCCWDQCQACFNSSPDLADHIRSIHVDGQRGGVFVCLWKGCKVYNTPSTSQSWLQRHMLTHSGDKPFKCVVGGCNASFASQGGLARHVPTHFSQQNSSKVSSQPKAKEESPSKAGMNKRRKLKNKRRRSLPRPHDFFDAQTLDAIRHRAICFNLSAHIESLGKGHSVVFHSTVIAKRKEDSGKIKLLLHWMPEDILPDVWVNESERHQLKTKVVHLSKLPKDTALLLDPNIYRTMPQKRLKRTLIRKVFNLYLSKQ

Row | SMILES | IC50 [nM]
1 | Cc1cc(=O)c(CNC(=O)c2cc(Cl)cc(OC3CCN(C(=O)OCc4ccccc4)CC3)c2C)c(C)[nH]1 [Example 1, Benzyl 4-(5-chloro-3-(((2,6-dimethyl-4-oxo-1,4-dihydropyridin-3-yl)methyl)carbamoyl) -2-methylphenoxy)piperidine-1-carboxylate] | 200
2 | Cc1cc(=O)c(CNC(=O)c2cc(Cl)cc(OC3CCOCC3)c2C)c(C)[nH]1 [Example 2, 5-Chloro-N-((2,6-dimethyl-4-oxo-1,4-dihydropyridin-3-yl)methyl)-2-methyl-3-((tetrahydro-2H-pyran-4-yl)oxy)benzamide] | 6310
3 | Cc1cc(=O)c(CNC(=O)c2cc(Cl)cc(OC3CCN(c4ccncn4)CC3)c2C)c(C)[nH]1 [Example 3, 5-Chloro-N-((2,6-dimethyl-4-oxo-1,4-dihydropyridin-3-yl)methyl)-2-methyl-3-((1-(pyrimidin-4-yl)piperidin-4-yl)oxy)benzamide] | 251
4 | Cc1cc(=O)c(CNC(=O)c2cc(Cl)cc(O[C@H]3CC[C@H](C(=O)NCc4ccccc4)CC3)c2C)c(C)[nH]1 [Example 4, 3-(((trans)-4-(Benzylcarbamoyl)cyclohexyl)oxy)-5-chloro-N-((2,6-dimethyl-4-oxo-1,4-dihydropyridin-3-yl)methyl)-2-methylbenzamide] | 40
5 | Cc1cc(=O)c(CNC(=O)c2cc(Cl)cc(OC3CCN(c4ccncn4)CC3)c2C)c(C)o1 [Example 5, 5-Chloro-N-((2,6-dimethyl-4-oxo-4H-pyran-3-yl)methyl)-2-methyl-3-((1-(pyrimidin-4-yl)piperidin-4-yl)oxy)benzamide] | 3160
6 | CCN(c1cc(Cl)cc(C(=O)NCc2c(C)oc(C)cc2=O)c1C)[C@H]1CC[C@H](N(C)C)CC1 [Example 6, 5-Chloro-N-((2,6-dimethyl-4-oxo-4H-pyran-3-yl)methyl)-3-(((trans)-4-(dimethylamino)cyclohexyl)(ethyl)amino)-2-methylbenzamide] | 40
7 | Cc1cc(=O)c(CNC(=O)c2cc(Cl)cc(OC3CCN(C(=O)OC(C)(C)C)CC3)c2C)c(C)[nH]1 [Example 8, tert-Butyl 4-(5-chloro-3-(((2,6-dimethyl-4-oxo-1,4-dihydropyridin-3-yl)methyl)carbamoyl)-2-methylphenoxy)piperidine-1-carboxylate] | 795
8 | Cc1cc(=O)c(CNC(=O)c2cc(Cl)cc(OC3CCNCC3)c2C)c(C)[nH]1 [Example 9, 5-Chloro-N-((2,6-dimethyl-4-oxo-1,4-dihydropyridin-3-yl)methyl)-2-methyl-3-(piperidin-4-yloxy)benzamide] | 2500
9 | Cc1cc(=O)c(CNC(=O)c2cc(Cl)cc(O[C@H]3CC[C@H](N4CCCC4)CC3)c2C)c(C)[nH]1 [Example 12, 5-Chloro-N-((2,6-dimethyl-4-oxo-1,4-dihydropyridin-3-yl)methyl)-2-methyl-3-(((1r,4r)-4-(pyrrolidin-1-yl)cyclohexyl)oxy)benzamide] | 795
10 | Cc1cc(=O)c(CNC(=O)c2cc(Cl)cc(OC3CCN(C)CC3)c2C)c(C)[nH]1 [Example 13, 5-Chloro-N-((2,6-dimethyl-4-oxo-1,4-dihydropyridin-3-yl)methyl)-2-methyl-3-((1-methylpiperidin-4-yl)oxy)benzamide] | 5000
11 | Cc1cc(=O)c(CNC(=O)c2cc(Cl)cc(O[C@H]3CC[C@H](N(C)C)CC3)c2C)c(C)[nH]1 [Example 14, 5-Chloro-N-((2,6-dimethyl-4-oxo-1,4-dihydropyridin-3-yl)methyl)-3-(((trans)-4-(dimethylamino)cyclohexyl)oxy)-2-methylbenzamide] | 395
12 | CCN(c1cc(Br)cc(C(=O)NCc2c(C)[nH]c(C)cc2=O)c1C)C1CCOCC1 [Example 15, 5-Bromo-N-((2,6-dimethyl-4-oxo-1,4-dihydropyridin-3-yl)methyl)-3-(ethyl(tetrahydro-2H-pyran-4-yl)amino)-2-methylbenzamide] | 40
13 | CCN(c1cc(Cl)cc(C(=O)NCc2c(C)[nH]c(C)cc2=O)c1C)[C@H]1CC[C@H](N(C)C)CC1 [Example 16, 5-Chloro-N-((2,6-dimethyl-4-oxo-1,4-dihydropyridin-3-yl)methyl)-3-(((trans)-4-(dimethylamino)cyclohexyl)(ethyl)amino)-2-methylbenzamide] | 3
14 | CCN(c1cc(Cl)cc(C(=O)NCc2c(C)[nH]c(C)c(N)c2=O)c1C)C1CCOCC1 [Example 17] | 32
15 | CCN(c1cc(Br)cc(C(=O)NCc2c(C)[nH]c(C)c(N)c2=O)c1C)[C@H]1CC[C@H](N(C)C)CC1 [Example 18, N-((5-Amino-2,6-dimethyl-4-oxo-1,4-dihydropyridin-3-yl)methyl)-5-bromo-3-(((1r,4r)-4-(dimethylamino)cyclohexyl)(ethyl)amino)-2-methylbenzamide] | 32
16 | CCN(c1cc(Br)cc(C(=O)NCc2c(C)[nH]c(C)cc2=O)c1C)[C@H]1CC[C@H](N(C)C)CC1 [Example 19, 5-Bromo-N-((2,6-dimethyl-4-oxo-1,4-dihydropyridin-3-yl)methyl)-3-(((1r,4r)-4-(dimethylamino)cyclohexyl)(ethyl)amino)-2-methylbenzamide] | 40
17 | CCN(c1cc(Br)cc(C(=O)NCc2c(C)[nH]c(C)c(N)c2=O)c1C)[C@H]1CC[C@H](N2CCOCC2)CC1 [Example 20, N-((5-Amino-2,6-dimethyl-4-oxo-1,4-dihydropyridin-3-yl)methyl)-5-bromo-3-(ethyl((1r,4r)-4-morpholinocyclohexyl)amino)-2-methylbenzamide] | 50
